Data set [1] addresses T1, novel mammalian opioid receptor (LC132, MSOR, OFQR) (Rattus norvegicus, UniProt P35370).
T1 construct: The entire coding region of the receptor cDNA insert was subcloned into the RcRSV vector; expressed in transfected cells
Description: biochemical. The format is binding.

Data set [2] deals with mice. Description: Morphine hypothermia and Straub tail in DBA/2J mice.
In data set [3] the test system is mice. Briefly: Reversal of morphine analgesia, 49° C. tail withdrawal latency. The format is in vivo, mouse. The settings on record: morphine sulfate 5 mg/kg sc.
The test system of data set [4] is mice. Description: Acetic acid abdominal constriction (writhing) test. In kind it is in vivo, mouse. The following applies: NAL 1 mg/kg and 10 mg/kg sc. How it is done: The AC assay was a modification of the technique originally described by Koster et al. Mice (N=9-15 per group) were acclimated to individual cylindrical Plexiglass observation chambers for >30 minutes. […] A separate group of Sal-treated mice received no icv injection (None). Between 5 and 10 minutes later, all mice were given an intraperitoneal (ip) injection of 0.9% acetic acid and placed back in their observation chambers. For the next 30 minutes, the number of abdominal constrictions (lengthwise stretches of the torso with a concomitant concave arching of the back) were counted and recorded. Four mice in separate chambers were observed simultaneously by a single experimenter blind to drug condition.

The test system of data set [5] is mice. On the set-up: dose or concentration left out as unconfirmed.

T1 sequence (P35370 whole entry): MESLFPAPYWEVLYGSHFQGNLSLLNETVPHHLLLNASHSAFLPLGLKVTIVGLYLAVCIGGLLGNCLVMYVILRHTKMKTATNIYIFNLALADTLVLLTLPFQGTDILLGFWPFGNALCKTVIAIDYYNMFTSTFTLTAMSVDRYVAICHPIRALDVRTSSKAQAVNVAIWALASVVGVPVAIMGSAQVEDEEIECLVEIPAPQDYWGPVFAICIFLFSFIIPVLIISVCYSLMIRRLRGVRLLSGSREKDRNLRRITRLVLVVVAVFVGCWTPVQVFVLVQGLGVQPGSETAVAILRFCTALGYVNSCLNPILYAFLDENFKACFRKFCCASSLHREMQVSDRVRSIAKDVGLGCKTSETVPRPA

Turning to `CCC12CCN(CC3(O)CC3)C(Cc3ccc(O)cc31)C2(C)C` (stereo not shown) [bremacozine], the “specific binding of the radioactively-labeled ligand” value (“specific binding” for short) in data set [1] was “no specific binding”.

Regarding `C[C@@H](NC(=O)[C@@H](N)Cc1ccc(O)cc1)C(=O)NCC(=O)N(C)[C@@H](Cc1ccccc1)C(=O)NCCO` [DAMGO, Tyr-DAla-Gly-Met-Phe-Gly-ol], the “specific binding” value in data set [1] was “no specific binding”.

`CC1(C)SSC(C)(C)[C@@H](NC(=O)[C@@H](N)Cc2ccc(O)cc2)C(=O)NCC(=O)N[C@@H](Cc2ccccc2)C(=O)N[C@H]1C(=O)O` [DPDPE, c[D-penicillamine^2, D-penicillamine^5]enkephalin]: the “specific binding” value in data set [1] was “no specific binding”.

In the case of `CN1CC[C@]23c4c5ccc(O)c4O[C@H]2[C@@H](O)C=C[C@H]3[C@H]1C5` [morphine], the “decrease in body temperature” value with mice [2] (MOR 20 mg/kg i.p., DBA/2J mice) came out at 6 °C. Moreover, in the data set on mice [2] (morphine 20 mg/kg), the Straub tail entry was “produced Straub tail”. For the same molecule, the duration of analgesia result in the data set on mice [3] is “about 2 hours”. Further, the “time of peak analgesia” value in the data set on mice [3] (post-injection) was found to be 30 min. `CCC(=O)C(CC(C)N(C)C)(c1ccccc1)c1ccccc1` (stereo not shown) [methadone]: in data set [1], the Bmax is recorded as 400-450 fentomoles/μg protein, the Kd was approximately 100 pM and the “specific binding” value is “specific binding was found”. Consider `CC[C@]12CCN(CC3CC3)[C@H](C(=O)c3ccc(O)cc31)[C@@H]2C` [ethylketocyclazocine], for which, in data set [1], the “specific binding” value is “no specific binding”. Same read-out and setting: the value for β-endorphin was “no specific binding”. As to `C=CCN1CC[C@]23c4c5ccc(O)c4O[C@H]2C(=O)CC[C@@]3(O)[C@H]1C5` [naloxone], the “decreased number of abdominal constrictions due to SIA” value with mice [4] is recorded as “reversed”. The “hyperalgesia in TW test” value in the data set on mice [5] is “In no case did any mouse treated with OFQ or naloxone exhibit hyperalgesia”. Besides, the “stress-induced analgesia: post-injection increase in TW latency” value in the data set on mice [5] (46° C. water, p<0.05) is “attenuated the 4 s post-injection increase in TW latency”. Take `CN1CC[C@]23c4c5ccc(O)c4O[C@H]2[C@@H](O)CC[C@H]3[C@H]1C5` [dihydromorphine]: the “specific binding” value in data set [1] was “no specific binding”.

The record behind these values is US5821219A (priority 1995, dated 1998).
